Source: ChEMBL document CHEMBL5126514, “Molecular design of dual inhibitors of PI3K and potential molecular target of cancer for its treatment: A review” (Eur J Med Chem, 2022)
pIC50: −log10 of the molar value. One block for each compound: values may come before it.

Assays:
Histone deacetylase 1 = Histone deacetylase 1 (Homo sapiens, UniProt Q13547); assay: Inhibition of full-length HDAC1 (unknown origin) by Color-de-Lys assay
[1] = target: T1, Phosphatidylinositol 4,5-bisphosphate 3-kinase catalytic subunit alpha isoform (Homo sapiens, UniProt P42336); assay: Inhibition of PI3Kalpha (unknown origin) expressed in baculovirus expression system using L-alpha-phosphatidylinositol as substrate by luminescence assay
T1 sequence (P42336 whole entry, canonical isoform): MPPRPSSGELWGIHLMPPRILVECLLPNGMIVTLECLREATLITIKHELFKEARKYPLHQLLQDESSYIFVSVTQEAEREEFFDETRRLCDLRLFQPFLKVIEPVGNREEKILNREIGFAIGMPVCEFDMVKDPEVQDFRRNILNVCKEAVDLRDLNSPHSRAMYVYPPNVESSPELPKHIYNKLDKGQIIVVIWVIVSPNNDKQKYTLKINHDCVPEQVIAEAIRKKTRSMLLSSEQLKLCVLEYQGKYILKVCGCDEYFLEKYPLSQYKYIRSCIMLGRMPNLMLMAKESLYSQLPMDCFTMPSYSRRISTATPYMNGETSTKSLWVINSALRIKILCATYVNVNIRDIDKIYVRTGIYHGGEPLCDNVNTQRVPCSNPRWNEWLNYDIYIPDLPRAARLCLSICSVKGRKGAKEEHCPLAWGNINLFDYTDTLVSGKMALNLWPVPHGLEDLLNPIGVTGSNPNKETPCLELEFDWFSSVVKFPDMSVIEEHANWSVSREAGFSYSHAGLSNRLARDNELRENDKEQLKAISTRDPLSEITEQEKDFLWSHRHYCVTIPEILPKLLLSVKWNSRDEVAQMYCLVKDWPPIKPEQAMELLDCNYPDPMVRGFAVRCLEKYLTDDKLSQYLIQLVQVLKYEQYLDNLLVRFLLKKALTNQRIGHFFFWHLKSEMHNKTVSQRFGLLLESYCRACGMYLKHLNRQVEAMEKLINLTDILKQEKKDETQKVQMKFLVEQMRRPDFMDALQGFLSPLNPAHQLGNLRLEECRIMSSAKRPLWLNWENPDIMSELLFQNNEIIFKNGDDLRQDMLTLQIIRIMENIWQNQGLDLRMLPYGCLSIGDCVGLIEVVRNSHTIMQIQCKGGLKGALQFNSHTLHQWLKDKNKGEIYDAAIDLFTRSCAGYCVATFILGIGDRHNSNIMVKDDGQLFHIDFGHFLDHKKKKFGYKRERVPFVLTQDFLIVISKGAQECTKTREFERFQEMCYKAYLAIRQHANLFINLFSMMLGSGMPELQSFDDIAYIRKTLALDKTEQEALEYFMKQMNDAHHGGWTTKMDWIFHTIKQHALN

[2] = target: T2, Phosphatidylinositol 4,5-bisphosphate 3-kinase catalytic subunit delta isoform (Homo sapiens, UniProt O00329); assay: Inhibition of PI3Kdelta (unknown origin)
T2 sequence (O00329 whole entry): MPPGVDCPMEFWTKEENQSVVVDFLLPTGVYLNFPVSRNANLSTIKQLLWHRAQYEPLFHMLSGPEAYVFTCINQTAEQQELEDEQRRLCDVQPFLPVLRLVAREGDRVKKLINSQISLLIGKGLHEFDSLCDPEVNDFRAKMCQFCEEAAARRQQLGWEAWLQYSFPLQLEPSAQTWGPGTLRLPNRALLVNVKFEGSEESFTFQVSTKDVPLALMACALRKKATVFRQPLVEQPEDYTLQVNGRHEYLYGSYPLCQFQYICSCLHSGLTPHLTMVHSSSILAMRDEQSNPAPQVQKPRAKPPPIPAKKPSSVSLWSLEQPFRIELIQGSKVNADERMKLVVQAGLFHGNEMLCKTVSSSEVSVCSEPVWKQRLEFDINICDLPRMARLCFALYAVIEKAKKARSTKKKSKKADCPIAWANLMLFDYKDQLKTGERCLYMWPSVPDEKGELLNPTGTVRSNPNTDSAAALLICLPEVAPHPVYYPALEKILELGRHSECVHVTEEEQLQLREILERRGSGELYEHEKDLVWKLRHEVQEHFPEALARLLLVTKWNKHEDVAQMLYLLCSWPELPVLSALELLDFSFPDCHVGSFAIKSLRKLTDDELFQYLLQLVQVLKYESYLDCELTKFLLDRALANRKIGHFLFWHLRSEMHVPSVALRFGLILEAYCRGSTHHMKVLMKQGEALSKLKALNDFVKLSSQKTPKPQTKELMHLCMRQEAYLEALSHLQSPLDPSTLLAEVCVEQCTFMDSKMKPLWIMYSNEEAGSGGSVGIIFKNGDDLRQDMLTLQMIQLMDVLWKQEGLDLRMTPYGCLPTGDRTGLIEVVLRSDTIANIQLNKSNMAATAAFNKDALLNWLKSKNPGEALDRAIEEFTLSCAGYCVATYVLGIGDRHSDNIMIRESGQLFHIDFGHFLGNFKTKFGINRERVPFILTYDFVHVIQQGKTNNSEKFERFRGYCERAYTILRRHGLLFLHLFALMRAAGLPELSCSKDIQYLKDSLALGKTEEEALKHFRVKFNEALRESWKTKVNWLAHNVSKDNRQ

[3] = target: T3, Protein deacetylase HDAC6 (Homo sapiens, UniProt Q9UBN7); assay: Inhibition of full-length HDAC6 (unknown origin) by Color-de-Lys assay
T3 sequence (Q9UBN7 whole entry): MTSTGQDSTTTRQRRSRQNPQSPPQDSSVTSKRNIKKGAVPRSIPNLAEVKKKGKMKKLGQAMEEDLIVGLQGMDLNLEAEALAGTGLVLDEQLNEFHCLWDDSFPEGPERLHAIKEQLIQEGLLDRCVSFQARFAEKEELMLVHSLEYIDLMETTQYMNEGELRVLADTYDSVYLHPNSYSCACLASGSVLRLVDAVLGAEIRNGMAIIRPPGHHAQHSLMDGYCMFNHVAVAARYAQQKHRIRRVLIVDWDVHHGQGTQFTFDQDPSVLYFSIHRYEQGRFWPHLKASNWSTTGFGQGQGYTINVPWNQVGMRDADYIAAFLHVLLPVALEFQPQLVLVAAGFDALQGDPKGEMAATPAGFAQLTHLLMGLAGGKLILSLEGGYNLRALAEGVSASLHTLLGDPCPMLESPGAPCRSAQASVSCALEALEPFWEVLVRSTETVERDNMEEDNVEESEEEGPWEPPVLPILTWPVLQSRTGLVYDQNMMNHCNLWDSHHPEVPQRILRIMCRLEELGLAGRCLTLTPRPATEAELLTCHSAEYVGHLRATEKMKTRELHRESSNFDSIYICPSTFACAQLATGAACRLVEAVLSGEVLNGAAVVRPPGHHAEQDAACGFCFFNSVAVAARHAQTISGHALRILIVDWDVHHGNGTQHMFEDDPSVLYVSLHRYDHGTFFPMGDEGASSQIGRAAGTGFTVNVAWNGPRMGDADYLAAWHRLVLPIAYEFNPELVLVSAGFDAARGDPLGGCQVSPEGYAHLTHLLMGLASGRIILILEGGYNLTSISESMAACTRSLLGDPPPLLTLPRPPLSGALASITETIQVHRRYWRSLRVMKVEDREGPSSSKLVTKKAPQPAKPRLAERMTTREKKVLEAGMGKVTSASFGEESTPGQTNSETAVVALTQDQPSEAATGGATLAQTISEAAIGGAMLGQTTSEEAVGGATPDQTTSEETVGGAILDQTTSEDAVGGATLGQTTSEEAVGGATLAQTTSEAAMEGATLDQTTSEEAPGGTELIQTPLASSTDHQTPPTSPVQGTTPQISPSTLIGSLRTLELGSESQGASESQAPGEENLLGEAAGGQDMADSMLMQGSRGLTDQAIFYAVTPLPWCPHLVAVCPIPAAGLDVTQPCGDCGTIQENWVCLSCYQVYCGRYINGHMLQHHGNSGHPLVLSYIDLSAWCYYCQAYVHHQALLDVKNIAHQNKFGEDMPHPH

[4] = target: T4, Mitogen-activated protein kinase; ERK1/ERK2 (Homo sapiens) (UniProt P27361+P28482); assay: Inhibition of Erk1/2 phosphorylation in human PANC-1 cells at 5 uM relative to control; assay type: cell-based
T4 sequence (P27361 whole entry, looked up): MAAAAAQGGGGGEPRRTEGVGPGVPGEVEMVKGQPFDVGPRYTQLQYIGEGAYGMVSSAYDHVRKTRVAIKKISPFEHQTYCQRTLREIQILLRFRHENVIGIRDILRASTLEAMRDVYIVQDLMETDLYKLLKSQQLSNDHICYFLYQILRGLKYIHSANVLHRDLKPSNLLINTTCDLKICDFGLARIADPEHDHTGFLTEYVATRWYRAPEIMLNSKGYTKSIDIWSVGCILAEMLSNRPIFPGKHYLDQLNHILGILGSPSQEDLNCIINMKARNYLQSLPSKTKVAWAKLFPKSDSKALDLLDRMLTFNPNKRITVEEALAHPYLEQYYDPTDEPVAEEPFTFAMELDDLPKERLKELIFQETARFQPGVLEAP
T4 sequence (P28482 whole entry, looked up): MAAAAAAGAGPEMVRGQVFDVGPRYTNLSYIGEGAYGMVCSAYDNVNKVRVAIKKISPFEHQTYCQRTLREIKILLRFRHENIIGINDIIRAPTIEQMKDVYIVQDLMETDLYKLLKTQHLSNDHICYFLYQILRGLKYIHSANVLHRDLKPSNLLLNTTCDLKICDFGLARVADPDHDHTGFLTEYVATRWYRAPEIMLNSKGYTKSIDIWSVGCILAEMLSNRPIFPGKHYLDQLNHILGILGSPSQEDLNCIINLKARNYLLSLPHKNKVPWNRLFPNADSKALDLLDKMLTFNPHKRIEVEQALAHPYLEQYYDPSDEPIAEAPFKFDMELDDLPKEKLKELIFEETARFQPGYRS

A549 = assay: Anticancer activity against human A549 cells assessed as cell killing activity at 10 uM relative to control; assay type: functional
[5] = target: T1, Phosphatidylinositol 4,5-bisphosphate 3-kinase catalytic subunit alpha isoform; assay: Inhibition of PI3Kalpha (unknown origin)
[6] = target: T4, Mitogen-activated protein kinase; ERK1/ERK2 (Homo sapiens); assay: Inhibition of Erk1/2 phosphorylation in human A549 cells; assay type: cell-based; conditions: concentration not given here
PANC-1 = assay: Anticancer activity against human PANC-1 cells assessed as cell killing activity at 25 uM relative to control; assay type: functional
KB = assay: Anticancer activity against human KB cells assessed as growth inhibition; assay type: functional, cell-based
[7] = Anticancer activity against human TU183 cells assessed as growth inhibition; assay type: functional, cell-based
SCC-4 = assay: Anticancer activity against human SCC-4 cells assessed as growth inhibition; assay type: functional, cell-based
[8] = target: T2, Phosphatidylinositol 4,5-bisphosphate 3-kinase catalytic subunit delta isoform; assay: Inhibition of PI3Kdelta (unknown origin) expressed in baculovirus expression system using L-alpha-phosphatidylinositol as substrate by luminescence assay
[9] = Inhibition of mTORC1 (unknown origin); set-up: species or system Homo sapiens
[10] = Inhibition of PI3K (unknown origin); set-up: species or system Homo sapiens
[11] = target: Phosphatidylinositol 4,5-bisphosphate 3-kinase catalytic subunit gamma isoform (Homo sapiens, UniProt P48736); assay: Inhibition of PI3Kgamma (unknown origin) expressed in baculovirus expression system using L-alpha-phosphatidylinositol as substrate by luminescence assay
Sequence of Phosphatidylinositol 4,5-bisphosphate 3-kinase catalytic subunit gamma isoform (P48736 whole entry, canonical isoform): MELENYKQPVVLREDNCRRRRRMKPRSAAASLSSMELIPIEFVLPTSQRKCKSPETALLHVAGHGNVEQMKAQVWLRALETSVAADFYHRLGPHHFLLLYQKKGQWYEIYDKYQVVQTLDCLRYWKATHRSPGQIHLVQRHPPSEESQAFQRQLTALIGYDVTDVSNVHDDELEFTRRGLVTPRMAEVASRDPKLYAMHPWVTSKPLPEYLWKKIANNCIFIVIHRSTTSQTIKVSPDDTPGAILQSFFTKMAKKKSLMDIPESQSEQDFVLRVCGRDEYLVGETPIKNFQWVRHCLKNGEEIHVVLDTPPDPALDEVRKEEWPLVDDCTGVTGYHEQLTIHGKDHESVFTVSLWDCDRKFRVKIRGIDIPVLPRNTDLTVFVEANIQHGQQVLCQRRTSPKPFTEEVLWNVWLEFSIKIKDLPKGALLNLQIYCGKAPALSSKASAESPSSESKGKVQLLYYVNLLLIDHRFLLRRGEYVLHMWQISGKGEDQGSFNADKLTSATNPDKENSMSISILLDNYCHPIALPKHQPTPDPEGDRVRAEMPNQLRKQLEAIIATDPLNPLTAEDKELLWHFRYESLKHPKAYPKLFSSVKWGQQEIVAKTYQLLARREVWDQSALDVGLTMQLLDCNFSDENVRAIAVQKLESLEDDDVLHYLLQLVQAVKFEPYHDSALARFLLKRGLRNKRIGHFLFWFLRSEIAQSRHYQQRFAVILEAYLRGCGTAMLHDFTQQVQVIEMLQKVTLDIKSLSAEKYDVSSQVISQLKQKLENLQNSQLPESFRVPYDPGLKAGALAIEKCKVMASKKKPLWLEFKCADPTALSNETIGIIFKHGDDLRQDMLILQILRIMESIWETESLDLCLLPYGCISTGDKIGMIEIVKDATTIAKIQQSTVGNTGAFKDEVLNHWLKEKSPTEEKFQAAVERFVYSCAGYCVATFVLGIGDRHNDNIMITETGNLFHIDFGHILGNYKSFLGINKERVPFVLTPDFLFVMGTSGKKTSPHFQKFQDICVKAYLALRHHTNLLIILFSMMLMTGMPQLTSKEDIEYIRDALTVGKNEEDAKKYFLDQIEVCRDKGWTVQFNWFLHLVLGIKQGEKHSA

[12] = target: Phosphatidylinositol 4,5-bisphosphate 3-kinase catalytic subunit beta isoform (Homo sapiens, UniProt P42338); assay: Inhibition of full-length PI3Kbeta (unknown origin) expressed in baculovirus infected Sf9 cells by ADP-Glo luminescent kinase assay
Sequence of Phosphatidylinositol 4,5-bisphosphate 3-kinase catalytic subunit beta isoform (P42338 whole entry, canonical isoform): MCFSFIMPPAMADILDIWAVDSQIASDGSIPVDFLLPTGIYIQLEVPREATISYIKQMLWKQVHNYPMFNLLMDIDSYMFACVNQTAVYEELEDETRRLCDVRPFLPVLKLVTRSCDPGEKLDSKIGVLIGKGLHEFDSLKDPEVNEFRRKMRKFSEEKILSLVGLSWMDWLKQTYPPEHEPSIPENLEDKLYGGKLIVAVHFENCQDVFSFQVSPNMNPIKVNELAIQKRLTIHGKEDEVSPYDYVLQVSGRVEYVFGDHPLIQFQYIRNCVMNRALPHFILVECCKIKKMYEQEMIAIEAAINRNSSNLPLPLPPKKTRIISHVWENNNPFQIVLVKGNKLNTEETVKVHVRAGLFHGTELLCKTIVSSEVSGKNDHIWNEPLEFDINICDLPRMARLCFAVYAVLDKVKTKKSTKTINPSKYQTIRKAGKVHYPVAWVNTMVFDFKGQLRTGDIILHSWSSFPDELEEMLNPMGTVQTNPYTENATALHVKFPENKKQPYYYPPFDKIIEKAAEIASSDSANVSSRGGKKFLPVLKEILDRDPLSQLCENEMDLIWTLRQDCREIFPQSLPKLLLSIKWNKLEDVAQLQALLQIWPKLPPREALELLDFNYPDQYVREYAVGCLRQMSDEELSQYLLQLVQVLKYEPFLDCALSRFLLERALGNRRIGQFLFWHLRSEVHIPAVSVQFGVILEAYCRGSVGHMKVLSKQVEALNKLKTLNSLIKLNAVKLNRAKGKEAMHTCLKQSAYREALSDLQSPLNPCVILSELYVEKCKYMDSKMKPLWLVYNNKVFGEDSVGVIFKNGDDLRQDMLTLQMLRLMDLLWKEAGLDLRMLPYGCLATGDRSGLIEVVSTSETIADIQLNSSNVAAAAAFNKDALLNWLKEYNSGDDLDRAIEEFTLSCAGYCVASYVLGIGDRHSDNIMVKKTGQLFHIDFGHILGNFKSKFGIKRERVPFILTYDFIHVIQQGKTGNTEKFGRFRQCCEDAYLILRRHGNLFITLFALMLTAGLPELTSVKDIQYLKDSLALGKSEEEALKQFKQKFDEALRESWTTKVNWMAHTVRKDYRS

[13] = target: T2, Phosphatidylinositol 4,5-bisphosphate 3-kinase catalytic subunit delta isoform; assay: Inhibition of full-length PI3Kdelta (unknown origin) expressed in baculovirus infected Sf9 cells by ADP-Glo luminescent kinase assay
[14] = target: T5, Polyamine deacetylase HDAC10 (Homo sapiens, UniProt Q969S8); assay: Inhibition of full-length HDAC10 (unknown origin) by Color-de-Lys assay
T5 sequence (Q969S8 whole entry): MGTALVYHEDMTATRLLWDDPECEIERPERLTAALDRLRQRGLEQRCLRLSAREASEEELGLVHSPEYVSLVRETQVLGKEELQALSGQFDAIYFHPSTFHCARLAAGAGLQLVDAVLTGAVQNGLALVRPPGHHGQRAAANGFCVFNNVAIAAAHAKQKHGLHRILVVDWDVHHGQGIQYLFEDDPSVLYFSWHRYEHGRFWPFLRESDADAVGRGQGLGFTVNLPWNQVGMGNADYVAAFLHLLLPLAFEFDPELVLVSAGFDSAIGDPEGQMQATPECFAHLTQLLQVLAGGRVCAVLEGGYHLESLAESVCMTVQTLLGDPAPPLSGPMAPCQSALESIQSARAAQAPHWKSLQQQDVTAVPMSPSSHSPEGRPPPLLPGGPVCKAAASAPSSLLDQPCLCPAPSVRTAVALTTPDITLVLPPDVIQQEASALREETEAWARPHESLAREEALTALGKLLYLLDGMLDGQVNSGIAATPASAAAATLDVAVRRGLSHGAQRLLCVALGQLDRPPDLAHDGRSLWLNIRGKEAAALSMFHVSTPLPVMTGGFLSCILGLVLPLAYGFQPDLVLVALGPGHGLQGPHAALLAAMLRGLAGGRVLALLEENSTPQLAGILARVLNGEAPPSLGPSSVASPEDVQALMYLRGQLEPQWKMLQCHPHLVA

[15] = target: T1, Phosphatidylinositol 4,5-bisphosphate 3-kinase catalytic subunit alpha isoform; assay: Inhibition of full-length PI3Kalpha (unknown origin) expressed in baculovirus infected Sf9 cells by ADP-Glo luminescent kinase assay

Sequence of Histone deacetylase 1 (Q13547 whole entry, canonical isoform): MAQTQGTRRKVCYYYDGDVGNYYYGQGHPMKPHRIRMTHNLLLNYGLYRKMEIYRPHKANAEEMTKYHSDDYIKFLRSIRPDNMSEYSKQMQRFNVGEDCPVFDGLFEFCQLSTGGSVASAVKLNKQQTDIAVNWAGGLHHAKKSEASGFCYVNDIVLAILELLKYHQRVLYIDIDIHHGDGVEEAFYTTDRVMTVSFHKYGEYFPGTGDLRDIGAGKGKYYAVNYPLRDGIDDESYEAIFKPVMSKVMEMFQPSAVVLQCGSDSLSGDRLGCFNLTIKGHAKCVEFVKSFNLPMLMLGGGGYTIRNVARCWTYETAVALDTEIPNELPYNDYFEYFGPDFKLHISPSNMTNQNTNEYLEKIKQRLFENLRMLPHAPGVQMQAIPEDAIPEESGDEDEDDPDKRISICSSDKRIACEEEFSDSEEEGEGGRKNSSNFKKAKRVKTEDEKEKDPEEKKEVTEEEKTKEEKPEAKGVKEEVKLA

pIC50 (Histone deacetylase 1): 8.85
pIC50 [1]: 7.38
SMILES: COc1ncc(-c2cc(OCCCCCCC(=O)NO)c3nc(N)nc(C)c3c2)cc1F

pIC50 [2]: 6.74
SMILES: O=C(NOCCOCCOCCOCCN1CCN(c2nc(N3CCOCC3)nc(-n3c(C(F)F)nc4ccccc43)n2)CC1)c1ccc(F)c(F)c1Nc1ccc(I)cc1F

pIC50 [3]: 7.73
SMILES: O=C(NO)c1ccc(/C=N/NC(=O)c2ccnc(-c3ccccc3)n2)cc1

SMILES: Cc1c(Cc2cccc(N(C)S(=O)(=O)CCCNCCCCCC(=O)N3CCN(c4nc(N5CCOCC5)nc(-n5c(C(F)F)nc6ccccc65)n4)CC3)c2)c(=O)oc2cc(OC(=O)N(C)C)ccc12
inhibition [4]: 35%
inhibition at 10 µM (A549): 50%
pIC50 [5]: 6.76
inhibition [6]: 35%
inhibition at 25 µM (PANC-1): 50%

pIC50 (KB): 8.13
pIC50 [8]: 7.42
SMILES: COc1ccc(-c2ccc3ncc4c(c3c2)n(-c2ccc(N3CCNCC3)c(C(F)(F)F)c2)c(=O)n4C)cn1 [BGT-226 FREE BASE]
pIC50 [7]: 8.13
pIC50 (SCC-4): 8.13

pIC50 (Histone deacetylase 1): 8.53
pIC50 [1]: 7.30
SMILES: COc1c(OCCCCCC(=O)NO)ccc2c1N=C(NC(=O)c1ccccc1)N1CCN=C21

pIC50 [9]: 10.40
pIC50 [10]: 9.52
SMILES: COc1ncc(-c2ccc3nccc(-c4ccnnc4)c3c2)cc1NS(=O)(=O)c1ccc(F)cc1F [OMIPALISIB]

pIC50 [11]: 7.37
pIC50 [8]: 8.05
SMILES: CCn1c(=O)c(-c2cc[nH]n2)cc2c(C)nc(N)nc21 [VOXTALISIB]

pIC50 [12]: 7.27
pIC50 [13]: 7.41
pIC50 [14]: 8.55
pIC50 [15]: 7.72
SMILES: Cn1cc(CNCC2CCN(c3ncc(C(=O)NO)cn3)CC2)c2ccccc21 [QUISINOSTAT]

pIC50 (Histone deacetylase 1): 8.89
pIC50 [1]: 6.65
SMILES: COc1ncc(-c2cc(OCCN(C)c3ncc(C(=O)NO)cn3)c3nc(N)nc(C)c3c2)cc1C
